Reference: patent US6207596A, “Disposable premoistened wipe containing an antimicrobial protease inhibitor” (The Procter & Gamble Company, priority 1998, dated 2001)

Assays:
Candida albicans = test: Method 3: antimicrobial activity (NCCLS dilution, MIC), C. albicans; format: cell-based, Candida albicans ATCC 10231; settings: ATCC10231, ATCC 10231, diluted with distilled water, 24 hours at 37° C., read-out: Minimal Inhibitory Concentration
Description: (§1) 3. Method for Determining the Activity of Antimicrobial Agents:
(§2) This method is used to determine the antimicrobial activity of antimicrobial agents. The antimicrobial activity of an antimicrobial agent is tested according to the National Committee for Clinical Laboratory Standards ("NCCLS") Methods. The NCCLS Dilution Antimicrobial Susceptibility Test for Bacteria Which Grow Aerobically is used (i.e.; NCCLS Document M7-A2, 1990).
(§3) Serial two-fold dilutions of the antimicrobial agent are made in trypticase soy broth in a microtiter plate (in the case of hexamidine diisethionate a 1000 μM starting concentration is recommended). Microorganism inocula are prepared by harvesting colonies from agar plates into saline and adjusting the optical density of the solution to be equivalent to the 0.5 McFarland standard. Each microorganism suspension is diluted 1:10 and 10 microliters of the suspension added to each microtiter well.
(§4) The microtiter plates are sealed and incubated for 24 hours at 37° C. The highest dilution of the antimicrobial agent preventing growth is recorded as the minimal inhibitory concentration ("MIC").
(§5) Referring to Table II, the antimicrobial activity of hexamidine diisethionate on three different microorganisms is shown. For purposes of this example, hexamidine diisethionate was diluted with distilled water and evaluated according to Method 3 above. […]

[1] = system: purified trypsin (human pancreatic trypsin); test: Method 1a: Efficacy of Protease Inhibitors in Purified Trypsin; format: biochemical; settings: 25° C., 405 nm; inhibitor diluted in distilled water
Description: (§6) Standard in vitro assays for determining enzyme activity, and inhibition of enzyme activity, are well known. The reagents used to conduct these tests are generally commercially available. In general, a simple system comprises an enzyme-specific substrate which, when hydrolyzed by the enzyme, produces a colored product. The activity of the enzyme is measured spectrophotometrically as the degree of development of the colored product (i.e.; the rate of color change) over a predetermined time period.
(§7) The inhibitory activity of an enzyme inhibitor may be calculated according to the following equation: […]
(§8) In the methods, v and vi are measured as the change in absorbency (optical density, OD) at a given wavelength/time (e.g., minutes). […]
Serial dilutions of a protease inhibitor are made using distilled water. A 50 μl aliquot of each serial dilution of protease inhibitor to be evaluated is added to a microcuvette containing 0.020 ml of trypsin buffer and 0.105 ml of purified trypsin. […]
After incubating, 0.025 ml of the 4 mM N-carbobenzyloxy-arginine-p-nitroanilide substrate solution is added to the microcuvette. […] The absorbency of the mixture is then measured at a wavelength of 405 nm over a period of 10 minutes at a temperature of 25° C. […]

Escherichia coli = test: Method 3: antimicrobial activity (NCCLS dilution, MIC), E. coli; format: cell-based; settings: ATCC25922, ATCC 25922, diluted with distilled water, 24 hours at 37° C., read-out: Minimal Inhibitory Concentration
Description: as §1, §2, §3, §4, §5

fecal trypsin = test: Method 2a: Efficacy of Protease Inhibitors in Fecal Trypsin; format: biochemical; settings: pooled infant fecal suspension; 25° C., 405 nm corrected by 490 nm
Description: as §6, §7, §8
Serial dilutions of a protease inhibitor are made using distilled water. A 0.7 ml aliquot of each dilution of protease inhibitor to be evaluated is added to a microcuvette. […]
A volume of 0.1 mL of fecal suspension is added to the microcuvette and mixed. The absorbency of the mixture at 490 nm is measured with the spectrophotometer. […] The absorbency of the mixture at 405 nm is then measured with the spectrophotometer over a period of 5 minutes at 25° C. These […] in order to correct for any background interference. […]

Staphylococcus aureus = test: Method 3: antimicrobial activity (NCCLS dilution, MIC), S. aureus; format: cell-based, Staphylococcus aureus ATCC 25923; settings: ATCC25923, ATCC 25923, diluted with distilled water, 24 hours at 37° C., read-out: Minimal Inhibitory Concentration
Description: as §1, §2, §3, §4, §5

N=C(N)c1ccc(OCCCCCCOc2ccc(C(=N)N)cc2)cc1 [hexamidine diisethionate]
MIC (Candida albicans): 13 µM | IC50 [1]: 2500 nM | MIC (Escherichia coli): 53 µM | IC50 (fecal trypsin): 2300 nM | MIC (Staphylococcus aureus): 3 µM
